# Data reported in patent US8513182B2, “Natural polypeptides for oral health care” (priority 2007, dated 2013).
# Read-outs that look alike come from different tables or passages of the source. Ends that are not written are not given here.
# How the values were obtained:
# S. mutans = settings: literature (Gibbons and Hay 1989; Shimotoyodeme et al 2006), cited from earlier work
# oral bacteria = settings: bacteria grown in a broth media, in-vitro; cited from earlier work
# bacteria adhering to SHA = settings: SHA treated with drug, washed, placed in a culture of bacteria; cited from earlier work
# bacterial plaque = settings: in vitro and in vivo; cited from earlier work
# Streptococcus mutans [1] = experiment: disk diffusion assay on confluent S. mutans culture; type: cell-based; settings: for antibacterial activity (zone of inhibition) against S. mutans: FIG. 4, lactoferrin, statherin and fusion peptides on disk
# Excerpt: In all panels the circle is a filter paper disk impregnated with different agents (PBS=phosphate buffered saline which is a control); LF “R”=the 11 mer of lactoferrin with arginine (R) in amino acid position 29; LF “K” the 11 mer of lactoferrin with lysine (K) in amino acid position 29. The disk containing a standard concentration of one of the agents is placed over a confluent culture of Streptococcus mutans.
# In all panels the circle is a disk impregnated with different agents. The disk is placed over a confluent culture of Streptococcus mutans. […] Panel top left: Lactoferrin (timer) where the lysine is present. […] Middle and top right panel are the two statherin peptides, a 6 mer and a 15 mer. […] Panel bottom left: lactoferrin 11 mer noted as LF fused to the Statherin 6 mer. […] Panel bottom right: Lactoferrin 11 mer noted as LF fused to Statherin 15 mer. […] The two panels on the bottom show the level of interference when the LF is added to the two Statherins. The activity of the LF when the smaller Statherin peptide is fused to it is greater as compared to when the larger peptide is fused to the LF.
# The first was a disk diffusion screening assay we developed in our laboratory. In that assay we grew an overnight culture of S. mutans in a broth consisting of trypticase soy and 20% sucrose added. Cells were grown overnight and then streaked to confluence on Mitis Salivarius Bacitracin (MSB) agar. In addition we took a 25 cm sterile filter paper disk and added 200 ul of either whole saliva, the saliva containing the lysine or the arginine variant of lactoferrin, allowed this saliva to dry onto the filter paper for 1 hour and then placed the filter paper containing the added protein over the center of the confluent culture of S. mutans on the MSB agar. […] This assay was used to screen for potential antimicrobial activity.
# The disk diffusion assay allows for specific proteins to be added to a filter paper disk whereby the protein can then diffuse into the agar to determine antimicrobial activity. The following peptides were added to the disk; R=arginine form of Lf (FIG. 1(a)). K=lysine form of Lf (FIG. 1(a). PBS=phosphate buffered saline which is used as the control solution and to which is added either the R form or K form of Lf. In FIG. 1 below we added R form, or the K form at a concentration of 1 ug/ml to 200 ul of PBS and then added that to the surface of a 25 cm filter paper strip and allowed the strip to dry for 1 hour. We then streaked a culture of S. mutans to confluence onto a plate of trypicase soy agar containing 20% sucrose and then placed the dried disk over the center of the plate. The cultures were allowed to grow in an incubator set at 37° C. and then evaluated either at 24 or 48 hours after inoculation. […] No zone was seen on disk R/PBS or R/Saliva, where the arginine variant was substituted for the lysine variant (FIG. 3). The R and K Form of LF peptide was added at a concentration of about 15 ug/ml.
# Streptococcus mutans [2] = experiment: killing of Streptococcus mutans by synthetic lactoferrin peptide; type: cell-based
compound,measurement,setting,value
"Statherin: small salivary tyrosine-rich phosphoprotein containing 43 amino acids (DSSEEKFLRRIGRFGYGYGPYQPVPEQPLYPQPYQPQYQQYTF; also: phosphoprotein, sites not given here; UniProt P02808 20-62, looked up)",S. mutans attachment / binding to the tooth surface,S. mutans,reduce S. mutans binding to the tooth surface
same,S. mutans attachment / binding to the tooth surface,S. mutans; listed as statherin,inhibit S. mutans attachment
Penicillin,concentration effective against oral bacteria,oral bacteria,1 µg/mL
same,adherence of bacteria to treated SHA,bacteria adhering to SHA,no effect
[H]/N=C(\N/C(=N/[H])NCCCCCCNC(=N)NC(=N)Nc1ccc(Cl)cc1)Nc1ccc(Cl)cc1 [chlorhexidine],bacterial plaque attachment to teeth,bacterial plaque,reduce bacterial plaque attachment to teeth
STAT-LF 6: fusion protein: lactoferrin 11 mer (LF) fused to the Statherin 6 mer (DDDEEKFQWQRNMRKVR; Synthetic fusion peptide STAT-LF6),antibacterial activity (zone of inhibition) against S. mutans,Streptococcus mutans [1]; listed as LF and the Statherin 6 mer,most active fusion peptide
same,antibacterial activity (zone of inhibition) against S. mutans,Streptococcus mutans [1]; listed as LF fused to the Statherin 6,retains the activity of the Lactoferrin 11 mer
same,antibacterial activity (zone of inhibition) against S. mutans,Streptococcus mutans [1]; listed as LF fused to the Statherin 6 mer,retains the activity of the Lactoferrin 11 mer
LF “K”: the 11 mer of lactoferrin with lysine (K) in amino acid position 29 (FQWQRNMRKVR; Active form of synthetic peptide LF11 based on human lactoferrin peptide),zone of inhibition of S. mutans growth around disk,"Streptococcus mutans [1]; FIG. 3, peptide in PBS dried on filter paper disk, 37° C., 24 or 48 hours, listed as K",zone of inhibition
same,zone of inhibition of S. mutans growth around disk,"Streptococcus mutans [1]; FIG. 3, peptide in PBS dried on filter paper disk, 37° C., 24 or 48 hours, listed as lysine variant of Lactoferrin",clear zone
same,antibacterial activity (zone of inhibition) against S. mutans,Streptococcus mutans [1],inhibits the growth of S. mutans
same,zone of inhibition of S. mutans growth around disk,"Streptococcus mutans [1]; peptide suspended in normal saliva, dried on filter paper disk",zone of inhibition
same,killing of Streptococcus mutans,Streptococcus mutans [2],kills Streptococcus mutans
"ST6: statherin peptide, a 6 mer (DSSEEK; ends and bridges not checked; UniProt P02808 20-25, looked up, fragment)",S. mutans attachment / binding to the tooth surface,S. mutans,also has this capacity
same,antibacterial activity (zone of inhibition) against S. mutans,Streptococcus mutans [1],do not have any antimicrobial activity
same,antibacterial activity (zone of inhibition) against S. mutans,Streptococcus mutans [1]; listed as Statherin 6 mer,no zone of inhibition
